Data published in patent publication US9808439B2 (Macau University of Science and Technology, priority 2015, dated 2017).
Entries after “also recorded” stand apart in the source; their conditions may differ. Like-named read-outs stand apart in the source and are kept apart here.

Tests used:
[1] = system: A2780/T cells; experiment: Intracellular accumulation of DOX and Flutax-2 in A2780/T; assay type: cell-based, human; settings: 8 h, 7.53 μM tangeretin or 20 μM QND
Experimental: cells (5×10^6) were cultured on the cover glass (ISO LAB 20×20 mm). […] After treatment, cells were fixed in 4 wt % formaldehyde (Sigma-Aldrich). Nuclear DNA was stained with 1 μg/mL blue-fluorescent DAPI (1 mg/mL in H2O stock solution; Invitrogen D1306). One drop of fluorescent preservation solution (fluorsave reagent, CALBIOCHEM) was added before observation. Imaging was carried out for comparing the intracellular accumulation of DOX and flutax-2 with a Fluorescence Microscopy (Leica DM2500, Leica, Germany). […] Cells were detached, re-suspended in 500 μl of PBS after washed twice with cold PBS, and analyzed by flow cytometry (BD FACS Aria, BD Biosciences, San Jose, Calif.). Excitation and emission wavelengths (nm) used for DOX and flutax-2 were as follows: 480 to 585; and 496 to 524.

[2] = biological target: P-gp (ABCB1 transporter) in Caco-2 cells (Homo sapiens, UniProt P08183)
[3] = system: A2780 cells; experiment: Intracellular accumulation of DOX and Flutax-2 in A2780; assay type: cell-based, human; settings: parental A2780, 7.53 μM tangeretin, 8 h
Experimental: A2780 or A2780/T cells (5×10^6) were cultured on the cover glass (ISO LAB 20×20 mm). […] After treatment, cells were fixed in 4 wt % formaldehyde (Sigma-Aldrich). Nuclear DNA was stained with 1 μg/mL blue-fluorescent DAPI (1 mg/mL in H2O stock solution; Invitrogen D1306). One drop of fluorescent preservation solution (fluorsave reagent, CALBIOCHEM) was added before observation. Imaging was carried out for comparing the intracellular accumulation of DOX and flutax-2 with a Fluorescence Microscopy (Leica DM2500, Leica, Germany).
Cells were detached, re-suspended in 500 μl of PBS after washed twice with cold PBS, and analyzed by flow cytometry (BD FACS Aria, BD Biosciences, San Jose, Calif.). Excitation and emission wavelengths (nm) used for DOX and flutax-2 were as follows: 480 to 585; and 496 to 524. Quinidine (QND, 20 μM), a known ABCB1 inhibitor, was used as a positive control.

[4] = system: A2780/T cells; experiment: SRB cell cytotoxicity assay in A2780/T; settings: tangeretin at 7.53 μM, all cell lines
Experimental: (§1) Sulphorhodamine B (SRB) assays were carried out as previously described to assess cell density, based on sensitive measure of total cellular protein, which performed similarly compared with other proliferation assays such as MTT assay. Briefly, cells were seeded into flat bottomed 96-well plates at an initial density of 7.5×10^3 per well before treatment. […] After removing the medium, cells were fixed in 10% trichloroacetic acid for 1 h at 4° C. and then washed with water five times. 0.4% SRB dissolved in 1% v/v acetic acid was added and incubated 30 mm for staining. The cells were quickly washed with 1% acetic acid and left to dry overnight. The protein bound SRB was solubilized by adding 200 μl 10 mM Tris buffer per well and measured at wavelengths 490 nm using a plate reader (Spectra MAX 250; Molecular Devices, Sunnyvale, Calif.).

[5] = biological target: T1, recombinant human ABCB1 membranes (Homo sapiens, UniProt P08183); experiment: ABCB1 ATPase activity assay (Pgp-Glo); assay type: biochemical
T1 construct: purchased Promega
Experimental: Sodium orthovanadate (Na3VO4) was used as an ABCB1 ATPase inhibitor. […] Luminescence was initiated by ATP detection buffer. The plate (white opaque 96-well, corning, USA) was further incubated at room temperature for […] to develop luminescent signal, and was read with luminometer (infinite M200 PRO,TECAN, Switzerland).

[6] = system: A2780/T cells; experiment: Apoptosis by Annexin-V/PI double staining; assay type: cell-based, human
Experimental: After treatment, 1×10^6 cells were collected, washed and suspended in 100 μl of binding buffer (10 mM N-2-hydroxyethylpiperazine-N,-2-ethanesulfonic acid/NaOH, 140 mM NaCl, 2.5 mM CaCl2, pH 7.4). Apoptotic cells were identified by double supravital staining with 5 μl recombinant FITC (fluorescein isothiocyanate)-conjugated Annexin-V and 5 μl PI (50 μg/ml). The cells were stained for […] at room temperature in the dark, and analyzed by fluorescence-activated cell sorting cater-plus flow cytometry. Data acquisition and analysis were performed in BD FACS Aria with FlowJo software.

[7] = system: A2780/T cells; experiment: Cell cycle analysis by flow cytometry in A2780/T; assay type: cell-based, human; settings: tangeretin 7.53 μM alone
Experimental: A2780/T cells were harvested after 24-hours, 48-hour, or 72-hour treatment and washed twice with ice-cold PBS. The cells were fixed and permeabilized with 70% ice-cold ethanol overnight at 4° C. or −20° C. for 2 h. After one additional wash in PBS, cells were stained with a staining solution containing PI ([…]) and RNase A (250 μg/ml) for […] at room temperature. They were then pelleted, washed and suspended in PBS to a final concentration of 1×10^6/ml and analyzed by flow cytometry (BD FACS Aria, BD Biosciences, San Jose, Calif.).

[8] = human, plasma; cited from earlier work
[9] = in vitro; settings: human, A2780 cells
[10] = rat, plasma; cited from earlier work
[11] = system: A2780/T cells; experiment: Combination index, Chou-Talalay method (CalcuSyn); assay type: cell-based, human; settings: Homo sapiens, read-out: Dose tangeretin at Fa 0.5 (ED50), CalcuSyn simulation, alone or in combination
Experimental: Combination index (CI) was calculated to quantitatively depict synergistic ([…], additive (CI=1), or antagonistic (CI>1) effect. With the use of CalcuSyn software v. 2.1 (Bio-soft), synergy is further refined as synergism (combination index=0.3-0.7), strong synergism (combination index=0.1-0.3), and very strong synergism (combination index<0.1).

[12] = system: MDR1 mRNA / ABCB1 protein in A2780/T cells; experiment: RT-PCR and Western blot of ABCB1 expression; assay type: cell-based, human; settings: tangeretin 0.83-7.53 μM, 48 hours
Experimental: RT-PCR was performed to evaluate MDR1 mRNA expression. mRNA from cell lysates were purified by binding to poly(dT) magnetic beads (Life technologies) and reverse transcribed by using SuperScript II (Life technologies). Standard quantitative RT-PCR was performed in duplicates at least two to three times by using SYBR Green (Molecular Probes) protocols on the ViiA™ 7 Real-Time PCR System (Life technologies). The primer sequences: 5′-[…]-3′ (SEQ ID […] NO:1) and 3′-[…]-5′ (SEQ ID NO:2) for MDR1, and 5′-[…]-3′ (SEQ ID NO:3) and 3′-[…]-[…]-5′ (SEQ ID NO:4) for control gene eukaryotic translation initiation factor (TIF). RT-PCR data was normalized by measuring average cycle threshold (Ct) ratios between candidate genes and control gene TIF.
The total cellular samples were harvested and rinsed twice with ice-cold PBS buffer. Cell extracts were lysed in RIPA buffer (50 mM Tris (pH 7.4), 150 mM NaCl, 1% Triton X-100, 1% sodium deoxycholate, 0.1% SDS, sodium orthovanadate, sodium fluoride and EDTA) containing protease inhibitor cocktails (Roche Life Science, USA). Protein concentration was determined using the BCA protein assay kit. Equal amounts of cell lysates were resolved by SDS-PAGE and subsequently electrophoretically transferred onto PVDF membranes (Millipore, Darmstadt, Germany). […]

[13] = system: p53; experiment: Western blot of p53 expression; assay type: cell-based, human; settings: tangeretin at various concentrations, 48 hours, Western blot
Experimental: The total cellular samples were harvested and rinsed twice with ice-cold PBS buffer. Cell extracts were lysed in RIPA buffer (50 mM Tris (pH 7.4), 150 mM NaCl, 1% Triton X-100, 1% sodium deoxycholate, 0.1% SDS, sodium orthovanadate, sodium fluoride and EDTA) containing protease inhibitor cocktails (Roche Life Science, USA). Protein concentration was determined using the BCA protein assay kit. Equal amounts of cell lysates were resolved by SDS-PAGE and subsequently electrophoretically transferred onto PVDF membranes (Millipore, Darmstadt, Germany). After blocking in tris-buffered saline containing 0.1% of Tween20 (TBST) with 5% (w/v) skim milk (Nestle Carnation, New Zealand) for 2 h at room temperature, the membranes were incubated with primary and secondary antibodies and subsequently visualized with an enhanced chemiluminescence detection kit (Thermo Scientific™ SuperSignal™ West Pico Chemiluminescent Substrate, USA). β-Actin was used as the loading control for the experimental data analysis.

[14] = in vitro; settings: human, A2780/T cells
Experimental: as §1

T1 sequence (P08183 whole entry): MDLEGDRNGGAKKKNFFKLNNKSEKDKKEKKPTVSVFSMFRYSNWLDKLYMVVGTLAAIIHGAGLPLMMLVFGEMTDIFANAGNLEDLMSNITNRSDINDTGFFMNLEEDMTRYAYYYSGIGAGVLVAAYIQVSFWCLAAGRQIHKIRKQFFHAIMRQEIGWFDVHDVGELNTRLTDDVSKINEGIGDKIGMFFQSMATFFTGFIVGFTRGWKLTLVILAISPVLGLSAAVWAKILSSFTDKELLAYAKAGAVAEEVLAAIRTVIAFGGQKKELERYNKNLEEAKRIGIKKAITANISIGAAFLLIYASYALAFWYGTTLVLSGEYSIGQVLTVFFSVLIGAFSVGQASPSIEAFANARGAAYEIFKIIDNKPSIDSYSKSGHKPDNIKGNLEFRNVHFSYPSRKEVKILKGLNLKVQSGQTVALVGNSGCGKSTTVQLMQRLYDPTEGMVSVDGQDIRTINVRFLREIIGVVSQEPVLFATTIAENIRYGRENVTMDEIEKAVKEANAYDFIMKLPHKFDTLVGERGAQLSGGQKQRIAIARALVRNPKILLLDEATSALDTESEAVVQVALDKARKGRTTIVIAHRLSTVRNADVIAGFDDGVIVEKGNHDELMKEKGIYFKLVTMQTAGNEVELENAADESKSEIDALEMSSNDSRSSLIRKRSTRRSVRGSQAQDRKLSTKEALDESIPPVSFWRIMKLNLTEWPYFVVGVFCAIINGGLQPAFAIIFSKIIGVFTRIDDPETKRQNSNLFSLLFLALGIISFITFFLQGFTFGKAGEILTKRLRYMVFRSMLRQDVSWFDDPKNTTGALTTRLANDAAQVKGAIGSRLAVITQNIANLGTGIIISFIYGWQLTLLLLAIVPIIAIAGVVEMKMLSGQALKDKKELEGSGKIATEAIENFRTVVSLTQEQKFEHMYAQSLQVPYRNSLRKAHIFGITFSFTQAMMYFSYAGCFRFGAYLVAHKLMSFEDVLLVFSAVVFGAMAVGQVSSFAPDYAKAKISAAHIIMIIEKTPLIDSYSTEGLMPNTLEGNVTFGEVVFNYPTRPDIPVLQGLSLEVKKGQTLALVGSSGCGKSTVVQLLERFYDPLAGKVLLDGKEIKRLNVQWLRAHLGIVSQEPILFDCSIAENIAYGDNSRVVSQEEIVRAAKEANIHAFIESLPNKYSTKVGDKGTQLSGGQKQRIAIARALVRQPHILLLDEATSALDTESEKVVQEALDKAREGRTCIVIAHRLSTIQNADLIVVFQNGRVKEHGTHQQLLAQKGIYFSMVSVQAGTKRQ
P-gp (ABCB1 transporter) in Caco-2 cells, sequence (P08183 whole entry): as above

inhibitory effect on efflux compared with 20 μM QND [2]: more potent than that of QND | inhibitory effect on efflux compared with 20 μM QND ([2]; human, 2 h, 2.51 μM): stronger than that of 20 μM QND | IC50 ([5]; 200 μM verapamil, read-out: IC50 for inhibiting verapamil-stimulated P-gp ATPase activity): 7.87 µM | EC50 ([5]; recombinant human ABCB1 membranes, 37° C., 40 min, read-out: EC50 for stimulating P-gp ATPase activity): 11.6 µM | maximal stimulation of ATPase activity ([5]; relative to the basal activity): 3 fold | IC50 [9]: 35.6 µM | EC50 [11]: 67.5 µM | IC50 [14]: 36.4 µM
Structure (SMILES): COc1ccc(-c2cc(=O)c3c(OC)c(OC)c(OC)c(OC)c3o2)cc1 [Tangeretin, 5,6,7,8,4′-pentamethoxyflavone]
intracellular accumulations of DOX and Flutax-2 [1]: remarkably enhanced; also recorded: higher than that of untreated A2780/T | DOX and Flutax-2 levels [3]: did not significantly alter; also recorded: no effect | cells survived [4]: more than 90% | apoptosis induction, single treatment ([6]; 7.53 μM tangeretin or 0.94 μM PTX alone): did not show apoptosis induction | apoptosis induced by 0.94 μM PTX ([6]; with 0.83, 2.51 and 7.53 μM tangeretin, A2780/T): significantly increase apoptosis | effect on the cell cycle [7]: no effect | Cmax [8]: 1000 to 5000 nM | Cmax [10]: 1000 to 5000 nM | mRNA or protein level of ABCB1 [12]: did not influence | mRNA or protein level of ABCB1 ([12]; listed as tangeretin): did not alter | p53 expression [13]: unregulated the p53 expression
